Measured values taken from article PMC9666555, “Genuine selective caspase-2 inhibition with new irreversible small peptidomimetics” (Cell Death & Disease, 2022).

Assays:
[1] = tested on: HeLa cells; experiment: Vincristine-induced HeLa cell death (propidium iodide, flow cytometry); format: cell-based, human; settings: 1 h pretreatment, 20 nM vincristine 44 h
Protocol: (§1) HeLa cells (obtained from ATCC) were cultured in Dulbecco’s Modified Eagle Medium (DMEM, High Glucose, GlutaMAX™, Pyruvate) supplemented with antibiotics and 10% fetal calf serum (FCS) (Gibco, Life Technologies) and maintained in T75 Flasks at 1 × 10^6 cells per flask. Twenty-four hours before treatments, HeLa cells were transferred to 6-well plates (8 × 10^4 cells/well). The lymphoblastoid cell line Molt4cl8 was a gift from Dr. Bernard Krust (Inserm, University Paris 5) and was cultured in RPMI 1640 Glutamax medium supplemented with Hepes, antibiotics, and 10% FCS. HEK293 cells were obtained from ATCC (CRL-1573) and cultured in DMEM with Glutamax and 25 mM glucose (Life Technologies) supplemented with 10% FCS and antibiotics. For cell death induction, the following agents were added to cell cultures: Vincristine (Sigma) and Panobistat (LBH589; Selleck). Cell death was analyzed using fluorescence microscopy (Axio-observer Z1, Zeiss; equipped with CCD camera CoolsnapHQ2, Ropert Scientific) and cytofluorometry (MACSQuant® VYB; Miltenyi Biotec, Bergisch Gladbach, Germany) after labeling with propidium iodide (1 µg/mL; 10 min; 37 °C; Life Technologies) and Hoechst 33342 (1 µg/mL; 5 min; RT; Sigma).
Fig. 2 q33 and h33 are protective against the cytocidal effect of Vincristine. a Vincristine induces HeLa cell death. Cells were incubated for 44 h at 37 °C with 20 nM Vincristine (VCR), then incubated with propidium iodide at 2 μg/mL for 10 min and analyzed by flow cytometry to quantify plasma membrane permeabilization. Histograms show fluorescence intensity detected by flow cytometry (one representative experiment) in the presence (VCR) or Absence (Co.) of Vincristine. % of propidium iodide-positive cells are indicated for both conditions. b Dose–response of Vincristine-induced cell death. HeLa cells were incubated and treated as in (a) with the indicated doses of Vincristine (VCR) and analyzed by flow cytometry. […] Representative fluorescence microscopy micrographs of cells treated for 44 h with 20 nM vincristine (VCR) or not (Co.) and stained with Hoechst 33342. Vincristine induces progressive nuclear changes with first condensed nuclei (arrows) and then apoptotic bodies (dashed arrow). d Broad-spectrum irreversible caspase inhibitors prevent vincristine-induced cell death. HeLa cells were pretreated for 1 hr with the indicated broad-spectrum irreversible caspases inhibitors (z-VAD(OMe)-fmk at 30 μM, Q-VD-OPh 30 μM, Emricasan 10 μM, or the negative control Q-VE-OPh 30 μM), then treated with vincristine as in panel (a), and analyzed by flow cytometry. Histograms show the mean ± SD of 3 independent experiments (***p value < 0.001). e Effect of the reversible Caspase-2 inhibitors q33 and h33 against vincristine-induced cell death. HeLa cells were pretreated for 1 h with the indicated doses of q33 or h33, then treated with vincristine as in panel a, and analyzed by flow cytometry. Histograms show the mean ± SD of three independent experiments (*p value < 0.1). TEXT PRINTED IN THE PICTURE: (a) VCR: 39,5 % DOUBTS OF THE COPYIST ABOUT THIS PICTURE: Panel a: the picture prints no measure beside "39,5 %" and "4.1%". I assigned 39,5 % to VCR only because it stands by the grey VCR peak. / Panel a: "4.1%" seems to belong to the untreated control (Co.). That is not a substance, so it is left out.
Fig. 5 LJ2 inhibits cell death induced by microtubule destabilization and hydroxamic acid-based deacetylase (HDAC) inhibition. a Effect of the irreversible Caspase-2 inhibitors LJ2 against vincristine-induced cell death. HeLa cells were pretreated for 1 h with the indicated doses of LJ2, Q-VD-OPh, or Q-LETD-OPh, then treated with vincristine (VCR) as in Fig. 2, then incubated with propidium iodide at 2 μg/mL for 10 min and analyzed by flow cytometry. Histogram data are mean ± SD (n = 3, *p value < 0.01). b Effect of Caspases-inhibitors against Panobistat (LBH589)-induced cell death. […]

[2] = design: method as in PMID 31870950, PMID 31887369; settings: cited from earlier work
[3] = tested on: Molt4 lymphoid human cells; experiment: Panobistat (LBH589)-induced cell death in Molt4 cells (propidium iodide, flow cytometry); format: cell-based; settings: Molt4, 1 h pretreatment (30 µM or indicated doses), 25 nM LBH589 24 h
Protocol: as §1
Fig. 5 LJ2 inhibits cell death induced by microtubule destabilization and hydroxamic acid-based deacetylase (HDAC) inhibition. a Effect of the irreversible Caspase-2 inhibitors LJ2 against vincristine-induced cell death. HeLa cells were pretreated for 1 h with the indicated doses of LJ2, Q-VD-OPh, or Q-LETD-OPh, then treated with vincristine (VCR) as in Fig. 2, then incubated with propidium iodide at 2 μg/mL for 10 min and analyzed by flow cytometry. […] Molt4 lymphoid human cells where were pretreated for 1 h with 30 µM of LJ2, Q-VD-OPh, or Belnacasan (VX-765), then treated for 24 h with 25 nM of LBH589, then incubated with propidium iodide as in (a) and analyzed by flow cytometry. […] Molt4 cells were treated as in (b) with the indicated doses of LJ2 or Q-VD-OPh and analyzed by flow cytometry. […]

[4] = molecular target: T1, recombinant human Casp2 (Homo sapiens, UniProt P42575); experiment: Enzyme mechanistic studies (Ki, k3, k3/KI), Caspase-2; format: biochemical; settings: irreversible inhibitors, progress curve method
T1 sequence (P42575 170-325 limits assumed): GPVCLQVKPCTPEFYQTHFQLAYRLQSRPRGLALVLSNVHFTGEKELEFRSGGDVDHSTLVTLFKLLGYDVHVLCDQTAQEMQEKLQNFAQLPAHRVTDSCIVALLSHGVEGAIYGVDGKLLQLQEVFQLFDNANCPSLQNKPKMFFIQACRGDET
T1 sequence (P42575 348-452 limits assumed): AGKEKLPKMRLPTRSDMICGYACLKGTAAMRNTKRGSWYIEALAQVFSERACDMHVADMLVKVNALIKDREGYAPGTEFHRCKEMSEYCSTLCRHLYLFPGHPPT
Protocol: (§2) For reversible inhibitors, the mechanisms of inhibition were determined by varying substrate and inhibitor concentrations and using Lineweaver−Burk representations to determine the inhibition constants Ki of competitive inhibitors (Ki = [E][I]/[EI]). For suicide inhibitors, inactivation can be represented by the minimum kinetic scheme (Eq. 2), where E and I are the free forms of enzyme and inhibitor, E * I a kinetic chimera of the Michaelis complex and E − I the covalent complex (inactivated enzyme).2 E+I⇄KIE*I→k3E−I
(§3) KI and k3 are the kinetic constants characterizing the inactivation process and the k3/KI ratio is an index of the inhibitory potency. The first-order rate constant, k3, and the apparent dissociation constant, KI, were determined for Caspase-2 and -3 using the progress curve method. Briefly, the enzyme activities were measured continuously for 120 min. To determine the kinetic parameters, progress curves were obtained at several inhibition concentrations using fixed substrate concentration. The product released for each inhibitor concentration was plotted versus the time following Eq. 3 where the constant π depended on [I]’, a modified inhibitor concentration due to substrate competition, according to Eq. 4. [I]’ is defined by Eq. 5, where KM was Michaelis constant for the enzymatic hydrolysis of the appropriate fluorogenic substrate. The ratio k3/KI was obtained by fitting the experimental data to the equations (F.U., fluorescence unit):3 F.U.=∫0tvidt+F.U0−vo×e^−π×t/π+F.U.0 4 π=k3×[I]^′/KI+[I]^′ 5 [I]^′=[I]/1+S/KM
Linear and nonlinear regression fits of the experimental data to the equations were performed with KaleidaGraph software. The experimental conditions were [Caspase-2]0 = 0.2 nM, [Ac-VDVAD-AMC]0 = 25 µM and [Caspase-3]0 = 0.1 nM, [Ac-DEVD-AMC]0 = 10 µM; [I]0 = 0–100 µM.

[5] = molecular target: T2, recombinant human Casp3 (Homo sapiens, UniProt P42574); experiment: Enzyme mechanistic studies (Ki, k3, k3/KI), Caspase-3; format: biochemical; settings: irreversible inhibitors, progress curve method
T2 sequence (P42574 29-175 limits assumed): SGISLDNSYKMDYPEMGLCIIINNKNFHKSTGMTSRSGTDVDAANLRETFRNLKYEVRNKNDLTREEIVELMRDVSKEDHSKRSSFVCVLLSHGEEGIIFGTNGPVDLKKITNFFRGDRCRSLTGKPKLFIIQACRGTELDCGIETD
T2 sequence (P42574 176-277 limits assumed): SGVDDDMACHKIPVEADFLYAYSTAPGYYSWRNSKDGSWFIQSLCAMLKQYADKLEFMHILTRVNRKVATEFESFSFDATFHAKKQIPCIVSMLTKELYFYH
Protocol: as §2, §3
Linear and nonlinear regression fits of the experimental data to the equations were performed with KaleidaGraph software.

[6] = design: method as in PMID 21881605; settings: cited from earlier work

SMILES: C[C@H](NC(=O)C(=O)Nc1ccccc1C(C)(C)C)C(=O)N[C@@H](CC(=O)O)C(=O)COc1c(F)c(F)cc(F)c1F [Emricasan]
- inhibition at 10 µM ([1]; Homo sapiens, inhibitor 10 µM): 95%
- efficacy in large clinical phase 3 studies for the treatment of NASH [2]: failed to demonstrate efficacy
- toxicity on chronic administration in humans [2]: not toxic nor carcinogenic

SMILES: CC(C)[C@H](NC(=O)c1ccc2ccccc2n1)C(=O)N[C@@H](CC(=O)O)C(=O)COc1c(F)cccc1F [Q-VD-OPh]
- inhibition of vincristine-induced cell death ([1]; inhibitor 30 µM): > 90%
- effect against Panobistat (LBH589)-induced cell death [3]: strongly inhibited cell death

SMILES: CCO[C@@H]1OC(=O)C[C@@H]1NC(=O)[C@@H]1CCCN1C(=O)[C@@H](NC(=O)c1ccc(N)c(Cl)c1)C(C)(C)C [Belnacasan, (S)-1-((S)-2-{[1-(4-amino-3-chloro-phenyl)-methanoyl]-amino}-3,3-dimethyl-butanoyl)-pyrrolidine-2-carboxylic acid ((2R,3S)-2-ethoxy-5-oxo-tetrahydro-furan-3-yl)-amide]
- effect against Panobistat (LBH589)-induced cell death [3]: did not affect cell death

SMILES: COC(=O)CC(NC(=O)[C@H](C)NC(=O)C(NC(=O)[C@H](CC(=O)OC)NC(=O)[C@@H](NC(=O)c1ccc2ccccc2n1)C(C)C)C(C)C)C(=O)COc1c(F)cccc1F (stereo in doubt) [TRP601, Quinolin-2-carbonyl-VD(OMe)VAD(OMe)-CH2-O(2,6F2)Ph, reference compound]
- Casp2 k3 [4]: 5,56 ms^−1
- KI (inactivation) [4]: 378 nM
- Casp3 k3 [5]: 4,24 ms^−1
- Casp3 k3/KI [5]: 25 126 M^−1 s^−1
- KI (inactivation) [5]: 209 nM
- neuroprotection ([6]; after intraperitoneal and intraveinous administration): confer neuroprotection
- Casp2 in the brain [6]: inhibit Casp2 in the brain
- toxicity in regulatory rodent and non-rodent studies [6]: non-toxic
